Results published in PMC8920385, “Design, synthesis and biological evaluation of a series of dianilinopyrimidines as EGFR inhibitors” (Journal of Enzyme Inhibition and Medicinal Chemistry, 2022).

Key:
A549 cells [1] = assay: Cell apoptosis analysis, Annexin V-FITC/PI flow cytometry; format: cell-based, Human; conditions: A549, 10 μM, 48 h
Text: Apoptosis of A549 cells is an efficient route to clear out the extra cancer cells in the tissue homeostasis.

A549 cells [2] = assay: Cell cycle analysis, PI flow cytometry; conditions: 48 h
Protocol: The experimental data of apoptosis and cell cycle for A549 cells were evaluated in BD Accuri C6 flow cytometry (American BD Corporation Shanghai Co., Ltd.), provided by the School of Pharmaceutical Sciences, Guizhou University.
(B) Profiles obtained by FACS. The percentages for different phases of the cell cycle were illustrated in the histogram.

[3] = target: T1, wild type EGFR tyrosine kinase (EGFR^wt) (Homo sapiens, UniProt P00533); assay: In vitro EGFR^wt-TK assay (ELISA); format: biochemical; conditions: mean ± SD of three replicates; for inhibition at 1 µM: read-out: EGFR^wt-TK inhibition rate
T1 construct: purchased PTM Bio; Co., Ltd
T1 sequence (P00533 25-1210): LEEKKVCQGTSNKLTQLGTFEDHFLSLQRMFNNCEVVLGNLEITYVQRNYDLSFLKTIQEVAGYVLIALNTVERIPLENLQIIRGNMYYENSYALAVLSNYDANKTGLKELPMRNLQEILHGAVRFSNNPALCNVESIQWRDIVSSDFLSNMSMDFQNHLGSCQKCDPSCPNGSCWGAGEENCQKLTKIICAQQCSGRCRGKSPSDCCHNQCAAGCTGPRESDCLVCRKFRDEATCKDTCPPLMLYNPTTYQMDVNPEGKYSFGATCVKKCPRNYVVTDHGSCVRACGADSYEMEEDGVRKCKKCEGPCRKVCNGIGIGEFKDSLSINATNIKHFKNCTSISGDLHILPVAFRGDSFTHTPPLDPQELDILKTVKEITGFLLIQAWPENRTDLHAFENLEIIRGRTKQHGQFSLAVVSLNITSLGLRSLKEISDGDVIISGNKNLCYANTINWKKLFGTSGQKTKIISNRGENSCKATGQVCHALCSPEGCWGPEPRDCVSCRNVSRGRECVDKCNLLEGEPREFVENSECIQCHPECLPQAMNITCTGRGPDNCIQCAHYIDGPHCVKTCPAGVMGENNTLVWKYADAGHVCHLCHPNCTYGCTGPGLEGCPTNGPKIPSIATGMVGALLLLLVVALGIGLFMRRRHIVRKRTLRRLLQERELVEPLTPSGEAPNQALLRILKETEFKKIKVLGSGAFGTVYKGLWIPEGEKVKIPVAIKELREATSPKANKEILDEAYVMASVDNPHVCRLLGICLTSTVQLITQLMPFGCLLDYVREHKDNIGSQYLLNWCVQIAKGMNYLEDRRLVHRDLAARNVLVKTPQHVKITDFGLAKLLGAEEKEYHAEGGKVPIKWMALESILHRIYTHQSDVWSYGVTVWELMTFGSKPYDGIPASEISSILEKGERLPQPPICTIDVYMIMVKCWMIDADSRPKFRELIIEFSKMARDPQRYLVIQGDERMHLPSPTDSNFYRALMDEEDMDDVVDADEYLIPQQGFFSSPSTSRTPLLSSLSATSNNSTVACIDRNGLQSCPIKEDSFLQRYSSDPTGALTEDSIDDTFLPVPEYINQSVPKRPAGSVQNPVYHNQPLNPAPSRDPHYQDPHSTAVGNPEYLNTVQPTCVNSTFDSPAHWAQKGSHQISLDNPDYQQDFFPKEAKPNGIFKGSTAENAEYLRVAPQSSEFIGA

HepG2 cells = assay: Cytotoxicity evaluation (MTT assay), HepG2; format: cell-based; conditions: Homo sapiens, mean ± SD of three replicates
PC-3 cells = assay: Cytotoxicity evaluation (MTT assay), PC-3; format: cell-based; conditions: Homo sapiens, mean ± SD of three replicates
A549 cells [4] = assay: Cytotoxicity evaluation (MTT assay), A549; format: cell-based; conditions: Homo sapiens, mean ± SD of three replicates
L02 cells = assay: Cytotoxicity evaluation (MTT assay), L02 normal cells; conditions: Homo sapiens, L02, read-out: IC50 L02
Protocol: Three tumour cells with high expression of EGFR^wt were used to test the antitumor activity of the compounds including, A549 (Human non-small-cell lung cancer cell line) cells, PC-3 (Human prostate cancer cell line) cells, and HepG2 (Human hepatocellular carcinomas cell line) cells. They were all purchased from the Shanghai Cell Bank of the Chinese Academy of Sciences. L02 (normal human liver cell line) cells were also used to evaluate the cytotoxicity. […] The IC50 values were calculated from the dose − response curve under Graph-Pad Prism.

Structure (SMILES) | EGFR^wt-TK inhibition rate ([3]; 1 μM) [%] | inhibition at 1 µM ([3]; 1 μM) [%] | IC50 [3] [nM] | melting point [°C] | early apoptotic cells (Q2-4) (A549 cells [1]) [%] | late apoptotic cells (Q2-2) (A549 cells [1]) [%] | Percentage of cells in G2/M phase (A549 cells [2]; A549, 1 μM) [%] | Percentage of cells in G2/M phase (A549 cells [2]; A549, 10 μM) [%] | IC50 (HepG2 cells) [µM] | IC50 (PC-3 cells) [µM] | IC50 (A549 cells [4]) [µM] | IC50 (L02 cells) [µM]
CNC(=O)c1ccsc1Nc1nc(Nc2ccc(NC(=O)c3cccc(F)c3)cc2)ncc1C(F)(F)F [4c, 2-{2-[4–(3-Fluoro-benzoylamino)-phenylamino]-5-trifluoromethyl-pyrimidin-4-ylamino}-thiophene-3-carboxylic acid methylamide] | 61.69 ± 2.08 | > 50 | 320 ± 47 | 217.1 to 219 | 10.70 | 57.84 | 51.09 | 59.32 | 2.21 ± 0.5 | 2.46 ± 0.42 | 0.56 ± 0.12 | > 40
CNC(=O)c1ccsc1Nc1nc(Nc2ccc(Nc3c(NCCNC(=O)C=Cc4cccc(F)c4)c(=O)c3=O)cc2)ncc1C(F)(F)F [8f, 2-{2-[4–(2-{2-[3-(3-Fluoro-phenyl)-acryloylamino]-ethylamino}-3,4-dioxo-cyclobut-1-enylamino)-phenylamino]-5-trifluoromethyl-pyrimidin-4-ylamino}-thiophene-3-carboxylic acid methylamide] | – | 58.9 ± 1.92 | 570 ± 290 | > 250 | – | – | – | – | 3.09 ± 0.66 | 3.48 ± 0.22 | 2.17 ± 0.54 | > 40
CNC(=O)c1ccsc1Nc1nc(Nc2ccc(Nc3c(NCCNC(=O)C=Cc4ccc(F)cc4)c(=O)c3=O)cc2)ncc1C(F)(F)F [8g, 2-{2-[4–(2-{2-[3–(4-Fluoro-phenyl)-acryloylamino]-ethylamino}-3,4-dioxo-cyclobut-1-enylamino)-phenylamino]-5-trifluoromethyl-pyrimidin-4-ylamino}-thiophene-3-carboxylic acid methylamide] | – | 52.1 ± 1.93 | 590 ± 150 | > 250 | – | – | – | – | 5.33 ± 0.58 | 6.08 ± 0.94 | 3.14 ± 0.92 | > 40
COc1cc2ncnc(Nc3ccc(F)c(Cl)c3)c2cc1OCCCN1CCOCC1 [Gefitinib, reference compound] | – | – | – | – | 7.77 | 10.62 | – | 21.71 | – | – | – | –

The next lines start with results.

EGFR^wt-TK inhibition rate ([3]; 1 μM) [%] | inhibition at 1 µM ([3]; 1 μM) [%] | IC50 [3] [nM] | melting point [°C] | Structure (SMILES) | early apoptotic cells (Q2-4) (A549 cells [1]) [%] | late apoptotic cells (Q2-2) (A549 cells [1]) [%] | Percentage of cells in G2/M phase (A549 cells [2]; A549, 1 μM) [%] | Percentage of cells in G2/M phase (A549 cells [2]; A549, 10 μM) [%] | IC50 (HepG2 cells) [µM] | IC50 (PC-3 cells) [µM] | IC50 (A549 cells [4]) [µM] | IC50 (L02 cells) [µM]
– | 6.86 ± 0.11 | – | > 250 | CCC(=O)NCCNc1c(Nc2ccc(Nc3ncc(C(F)(F)F)c(Nc4sccc4C(=O)NC)n3)cc2)c(=O)c1=O [8a, 2-(2-{4-[3,4-Dioxo-2-(2-propionylamino-ethylamino)-cyclobut-1-enylamino]-phenylamino}-5-trifluoromethyl-pyrimidin-4-ylamino)-thiophene-3-carboxylic acid methylamide] | – | – | – | – | > 20 | > 20 | > 20 | > 40
– | 7.92 ± 0.54 | – | > 250 | CNC(=O)c1ccsc1Nc1nc(Nc2ccc(Nc3c(NCCNC(=O)C(C)C)c(=O)c3=O)cc2)ncc1C(F)(F)F [8b, 2-(2-{4-[2-(2-Isobutyrylamino-ethylamino)-3,4-dioxo-cyclobut-1-enylamino]-phenylamino}-5-trifluoromethyl-pyrimidin-4-ylamino)-thiophene-3-carboxylic acid methylamide] | – | – | – | – | > 20 | > 20 | > 20 | > 40
– | 28.1 ± 1.27 | – | > 250 | CNC(=O)c1ccsc1Nc1nc(Nc2ccc(Nc3c(NCCNC(=O)C4CCCC4)c(=O)c3=O)cc2)ncc1C(F)(F)F [8c, 2-[2–(4-{2-[2-(Cyclopentanecarbonyl-amino)-ethylamino]-3,4-dioxo-cyclobut-1-enylamino}-phenylamino)-5-trifluoromethyl-pyrimidin-4-ylamino]-thiophene-3-carboxylic acid methylamide] | – | – | – | – | 9.54 ± 0.91 | 9.69 ± 1.13 | 7.32 ± 0.65 | > 40
– | 29 ± 1.55 | – | > 250 | CNC(=O)c1ccsc1Nc1nc(Nc2ccc(Nc3c(NCCNC(=O)C4CCCCC4)c(=O)c3=O)cc2)ncc1C(F)(F)F [8d, 2-[2-(4-{2-[2-(Cyclohexanecarbonyl-amino)-ethylamino]-3,4-dioxo-cyclobut-1-enylamino}-phenylamino)-5-trifluoromethyl-pyrimidin-4-ylamino]-thiophene-3-carboxylic acid methylamide] | – | – | – | – | 8.28 ± 0.69 | 8.35 ± 0.74 | 6.14 ± 0.72 | > 40
– | 53.1 ± 1.75 | 640 ± 100 | > 250 | CNC(=O)c1ccsc1Nc1nc(Nc2ccc(Nc3c(NCCNC(=O)C=Cc4ccccc4)c(=O)c3=O)cc2)ncc1C(F)(F)F [8e, 2-[2-(4-{3,4-Dioxo-2-[2-(3-phenyl-acryloylamino)-ethylamino]-cyclobut-1-enylamino}-phenylamino)-5-trifluoromethyl-pyrimidin-4-ylamino]-thiophene-3-carboxylic acid methylamide] | – | – | – | – | 4.31 ± 0.39 | 4.12 ± 0.65 | 3.15 ± 0.44 | > 40
